Measured values published in US5124334A, “Benzylalcohol phospholipase A2 inhibitors” (Du Pont Merck Pharmaceutical Company, priority 1989, dated 1992).
Counter-ions that a name gives are not always drawn.

What follows are compounds tested on inflammation induced by tetradecanoyl phorbol acetate (TPA) (assay: TPA inflammation inhibition test (TPA-induced mouse ear edema)). Settings: test compound 100 mg/ear applied topically, edema measured four hours later.
Assay type: in vivo, mice
Text: One such model is the inflammation induced by tetradecanoyl phorbol acetate (TPA), modified from the method of Kuehl et al., Nature, 1977, 265, 170; and Van Arman, Clin. Pharmacol. Ther., 1974, 16, 900. The TPA model mimics many of the inflammatory change which occur in human skin diseases such as psoriasis, since elevated levels of inflammatory arachidonic acid metabolites are found and an influx of polymorphonuclear leukocytes is observed. The test procedure used to evaluate the compounds of Formula (I) is as follows: the test compound (100 mg/ear) is applied to both ears of mice in an appropriate vehicle, such as acetone, and then the inflammatory stimulus (TPA) is applied to the right ear. Four hours later, the edema is measured by removing standard size discs from the ears using a biopsy punch. A control group of animals receives TPA in vehicle applied to the right ear, and vehicle alone to the left ear. The weights of the ear discs are determined, and the suppression of swelling observed in animals treated with the test compound is determined.
In the case of `CC(C)c1ccc2c(c1)CCC1C(C)(CNCCC(O)c3ccc(F)cc3)CCCC21C` (stereo not drawn) [Example 1, α-(2-[1,4a-Dimethyl-7-(2-propyl)-1,2,3,4,4a,9,10,10a-octahydro-1-phenanthren-1-yl]methylamino)ethyl)-4-fluorobenzenemethanol Hydrochloride], the “% Inhibition of Control Swelling” value is reported as 46%.
For `CC(C)c1ccc2c(c1)CCC1C(C)(CNCCCC(O)c3ccc(F)cc3)CCCC21C.Cl` (stereo not drawn) [Example 2, α-(3-([1,4a-Dimethyl-1,2,3,4,4a,9,10,10a-octahydro-7-(2-propyl)-1-phenanthrenyl]methylamino)propyl)-4-fluorobenzenemethanol Hydrochloride], the “% Inhibition of Control Swelling” value was 57%.
With `COc1ccc(C(O)CCNCC2(C)CCCC3(C)c4ccc(C(C)C)cc4CCC23)cc1.Cl` (stereo not drawn) [Example 12, α-(2-([1,4a-Dimethyl-1,2,3,4,4a,9,10,10a-octahydro-7-(2-propyl)-1-phenanthrenyl]methylamino)-ethyl)-4-methoxybenzenemethanol Hydrochloride] the “% Inhibition of Control Swelling” value was 27%.
